Among the data in patent EP4725957A1, “GROUP OF CYCLIC ALKALINE LIPOPEPTIDE COMPOUNDS, AND PREPARATION METHOD THEREFOR AND USE THEREOF” (Institute of Medicinal Biotechnology, Chinese Academy of …, priority 2023, dated 2024) are MIC and IC50 values, retold here.

The structures appear in SMILES notation. In brackets after ≈: the same amount, converted by molar mass. Bridge positions count the residues as written; N and C are the ends. Square brackets hold non-standard residues; d marks the D form. Peptide text beside a SMILES is read from it. * marks the point of attachment. Nonanoyl = CCCCCCCCC(=O)*; dDab = NCC[C@@H](N)C(=O)O; Heptanoyl = CCCCCCC(=O)*; Octanoyl = CCCCCCCC(=O)*; Orn = NCCC[C@H](N)C(=O)O; Dab = NCC[C@H](N)C(=O)O; Dap = NC[C@H](N)C(=O)O

What all share (format): cell-based
The subject of data set [1] is Escherichia coli ATCC BAA-2523. The settings on record: ATCC BAA-2523. The method in brief: (§1)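 Colonies from 18-24 h plates were suspended to 0.5 McFarland and diluted in MH broth. Two-fold compound dilutions were then mixed 1:1 with inoculum to reach 64 to 0.03 mg/L and (2-4) × 10^5 CFU/mL. Plates were sealed and incubated at 35-37°C for 16-20 h, after which the MIC was read.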

Data set [2] has as its system Klebsiella pneumoniae KPN+19-15. The settings on record: KPN+19-15. The method, boiled down:
as §1

For data set [3], the system named is Acinetobacter baumannii NCTC 13304 (OXA-27). The settings on record: NCTC 13304. The method in brief: as §1
In data set [4] the test system is Pseudomonas aeruginosa PAE19-3. The settings on record: PAE19-3. The method in brief: as §1
The test system of data set [5] is Escherichia coli ATCC BAA-2340 (KPC). The settings on record: ATCC BAA-2340. The method, boiled down:
as §1

In data set [6] the test system is Pseudomonas aeruginosa ATCC 27853. Conditions: ATCC 27853. The method, boiled down: as §1
The subject of data set [7] is Klebsiella pneumoniae ATCC BAA-1705 (KPC). The settings on record: ATCC BAA-1705. The method, boiled down: as §1
The subject of data set [8] is Acinetobacter baumannii ABA19-1. The settings on record: ABA19-1. The method, boiled down: as §1
Data set [9] can be described thus: Nephrotoxicity assay: in vitro cytotoxicity of HK-2 cells by CCK-8 assay. Conditions: human, HK-2 cells (human renal), 72 h incubation with drug-containing medium. The method, boiled down: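 HK-2 human renal cells in RPMI-1640 with 10% FBS were exposed to compounds at final 12.5–500 µg/mL for 72 h, then CCK-8 for 3 h and OD450 read. Viability was normalised to drug-free wells; IC50 came from logarithmic regression over three repeats, with polymyxin B as positive drug.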
(Tetrazolium dyes change colour on reduction, which living cells bring about.)

For the compound `CCCCCCC(=O)N[C@@H](CN)C(=O)N[C@H](C(=O)N[C@H](CCN)C(=O)N[C@H]1CCNC(=O)[C@H]([C@@H](C)O)NC(=O)[C@H](CCN)NC(=O)[C@H](CCN)NC(=O)[C@H](CC(C)C)NC(=O)[C@@H](CC(C)C)NC(=O)[C@H](CCN)NC1=O)[C@@H](C)O` [Compound 99, Heptanoyl-Dap-Thr-D-Dab-ring(4-10)[Dab-Dab-D-Leu-Leu-Dab-Dab-Thr]] (Heptanoyl-[Dap]T[dDab][Dab][Dab][dL]L[Dab][Dab]T; lactam 4-C), the minimum inhibitory concentration (MIC) in data set [1] is 0.06 µg/mL (≈ 0.0532 µM); in data set [2], 0.03 µg/mL (≈ 0.0266 µM); in data set [3] it was 0.03 µg/mL (≈ 0.0266 µM); in data set [4] it was 1 µg/mL (≈ 0.887 µM); in data set [5] it was 0.06 µg/mL (≈ 0.0532 µM); in [6] it was 1 µg/mL (≈ 0.887 µM). Further, the MIC in data set [7] and in data set [8] was 0.03 µg/mL (≈ 0.0266 µM) each time. Further, inhibition in [9] was half-maximal at 317 ± 18.1 µg/mL (≈ 281 µM) (IC50 at 72 h).
Regarding `CCCCCCCCC(=O)N[C@@H](CCCN)C(=O)N[C@H](C(=O)N[C@H](CO)C(=O)N[C@H]1CCNC(=O)[C@H]([C@@H](C)O)NC(=O)[C@H](CCN)NC(=O)[C@H](CCN)NC(=O)[C@H]([C@@H](C)O)NC(=O)[C@@H](Cc2ccccc2)NC(=O)[C@H](CCN)NC1=O)[C@@H](C)O` [Compound 60, Nonanoyl-Orn-Thr-D-Ser-ring(4-10)[Dab-Dab-D-Phe-Thr-Dab-Dab-Thr]] (Nonanoyl-[Orn]T[dS][Dab][Dab][dF]T[Dab][Dab]T; lactam 4-C), the minimum inhibitory concentration (MIC) in [1] came out at 0.25 µg/mL (≈ 0.21 µM); in data set [2] it was 0.5 µg/mL (≈ 0.419 µM); in data set [3], 0.25 µg/mL (≈ 0.21 µM); in data set [4] it was 8 µg/mL (≈ 6.71 µM); in [5] it was 0.25 µg/mL (≈ 0.21 µM); in data set [6], 64 µg/mL (≈ 53.7 µM). Further, the MIC in data set [7] and in data set [8] was 0.25 µg/mL (≈ 0.21 µM) each time. In addition, in [9], half-maximal inhibition (IC50 at 72 h) required 281 ± 9.5 µg/mL (≈ 235 µM).
For the compound `CCCCCCCC(=O)N[C@@H](CCN)C(=O)N[C@H](C(=O)N[C@H](CO)C(=O)N[C@H]1CCNC(=O)[C@H]([C@@H](C)O)NC(=O)[C@H](CCN)NC(=O)[C@H](CCN)NC(=O)[C@H]([C@@H](C)O)NC(=O)[C@@H](Cc2ccccc2)NC(=O)[C@H](CCCN)NC1=O)[C@@H](C)O` [Compound 68, Octanoyl-Dab-Thr-D-Ser-ring(4-10)[Dab-Orn-D-Phe-Thr-Dab-Dab-Thr]] (Octanoyl-[Dab]T[dS][Dab][Orn][dF]T[Dab][Dab]T; lactam 4-C), the MIC is 0.25 µg/mL (≈ 0.212 µM) in data set [1]; 0.5 µg/mL (≈ 0.424 µM) in data set [2]; 0.25 µg/mL (≈ 0.212 µM) in data set [3]; 4 µg/mL (≈ 3.39 µM) in data set [4]; 0.25 µg/mL (≈ 0.212 µM) in data set [5]; 64 µg/mL (≈ 54.3 µM) in data set [6]. The MIC in data set [7] and in data set [8] was 0.25 µg/mL (≈ 0.212 µM) in each case. For the same compound, the IC50 at 72 h in [9] was above 500 µg/mL.
On to `CCCCCCCCC(=O)N[C@@H](CCN)C(=O)N[C@H](C(=O)N[C@H](CO)C(=O)N[C@H]1CCNC(=O)[C@H]([C@@H](C)O)NC(=O)[C@H](CCN)NC(=O)[C@H](CN)NC(=O)[C@H]([C@@H](C)O)NC(=O)[C@@H](Cc2ccccc2)NC(=O)[C@H](CCN)NC1=O)[C@@H](C)O` [Compound 75, Nonanoyl-Dab-Thr-D-Ser-ring(4-10)[Dab-Dab-D-Phe-Thr-Dap-Dab-Thr]] (Nonanoyl-[Dab]T[dS][Dab][Dab][dF]T[Dap][Dab]T; lactam 4-C), for which the MIC is 0.06 µg/mL (≈ 0.0515 µM) in [1]; 0.5 µg/mL (≈ 0.429 µM) in [2]; 0.03 µg/mL (≈ 0.0258 µM) in data set [3]; 64 µg/mL (≈ 55 µM) in data set [4]; 0.06 µg/mL (≈ 0.0515 µM) in data set [5]; above 64 µg/mL in data set [6]. The figures for the MIC in data set [7] and in data set [8] were 0.25 µg/mL (≈ 0.215 µM) and 0.06 µg/mL (≈ 0.0515 µM), respectively. Further, the IC50 at 72 h in data set [9] stood at 310 ± 19.8 µg/mL (≈ 266 µM).

As a reminder, the MIC is the lowest concentration that inhibits growth of the organism. A lower MIC goes with a more susceptible organism. By IC50 is commonly meant the point on the concentration scale where inhibition reaches its midpoint.
